Patent US5990118A, “Purine compounds and xanthine oxidase inhibitors” (Yamasa Corporation, priority 1995, dated 1999)

Target: T1, bovine-milk-derived xanthine oxidase (XOD) (Bos taurus, UniProt P80457)
T1 construct: from tissue; host or cells: bovine milk
Test: Xanthine oxidase inhibitory activity (inhibition of uricogenesis from xanthine, absorbance at 292 nm)
Type: biochemical
Conditions: xanthine 100 μM, XOD 10 mU/ml, 50 mM phosphate buffer pH 7.4, 15 minutes, room temperature
Procedure: Test Example: Xanthine oxidase inhibitory activity
Xanthine (100 μM), bovine-milk-derived xanthine oxidase (XOD) (10 mU/ml), and a test compound were mixed in 50 mM phosphate buffer (pH 7.4), and the mixture was incubated for 15 minutes at room temperature. Transformation of xanthine into uric acid was measured as the change in absorbance (O.D.) at 292 nm, to thereby investigate the inhibitory effect of the test compound against uricogenesis.
The inhibition ratio against uricogenesis was calculated from the following equation, and a dose-response curve of each compound was obtained.
Inhibition ratio against uricogenesis (%)=100-[(D-DB)/T]×100
T: O.D. of a solution of "xanthine+XOD"
D: O.D. of a solution of "test compound+xanthine+XOD"
DB: O.D. of a solution of "test compound+XOD"

T1 sequence (P80457 whole entry): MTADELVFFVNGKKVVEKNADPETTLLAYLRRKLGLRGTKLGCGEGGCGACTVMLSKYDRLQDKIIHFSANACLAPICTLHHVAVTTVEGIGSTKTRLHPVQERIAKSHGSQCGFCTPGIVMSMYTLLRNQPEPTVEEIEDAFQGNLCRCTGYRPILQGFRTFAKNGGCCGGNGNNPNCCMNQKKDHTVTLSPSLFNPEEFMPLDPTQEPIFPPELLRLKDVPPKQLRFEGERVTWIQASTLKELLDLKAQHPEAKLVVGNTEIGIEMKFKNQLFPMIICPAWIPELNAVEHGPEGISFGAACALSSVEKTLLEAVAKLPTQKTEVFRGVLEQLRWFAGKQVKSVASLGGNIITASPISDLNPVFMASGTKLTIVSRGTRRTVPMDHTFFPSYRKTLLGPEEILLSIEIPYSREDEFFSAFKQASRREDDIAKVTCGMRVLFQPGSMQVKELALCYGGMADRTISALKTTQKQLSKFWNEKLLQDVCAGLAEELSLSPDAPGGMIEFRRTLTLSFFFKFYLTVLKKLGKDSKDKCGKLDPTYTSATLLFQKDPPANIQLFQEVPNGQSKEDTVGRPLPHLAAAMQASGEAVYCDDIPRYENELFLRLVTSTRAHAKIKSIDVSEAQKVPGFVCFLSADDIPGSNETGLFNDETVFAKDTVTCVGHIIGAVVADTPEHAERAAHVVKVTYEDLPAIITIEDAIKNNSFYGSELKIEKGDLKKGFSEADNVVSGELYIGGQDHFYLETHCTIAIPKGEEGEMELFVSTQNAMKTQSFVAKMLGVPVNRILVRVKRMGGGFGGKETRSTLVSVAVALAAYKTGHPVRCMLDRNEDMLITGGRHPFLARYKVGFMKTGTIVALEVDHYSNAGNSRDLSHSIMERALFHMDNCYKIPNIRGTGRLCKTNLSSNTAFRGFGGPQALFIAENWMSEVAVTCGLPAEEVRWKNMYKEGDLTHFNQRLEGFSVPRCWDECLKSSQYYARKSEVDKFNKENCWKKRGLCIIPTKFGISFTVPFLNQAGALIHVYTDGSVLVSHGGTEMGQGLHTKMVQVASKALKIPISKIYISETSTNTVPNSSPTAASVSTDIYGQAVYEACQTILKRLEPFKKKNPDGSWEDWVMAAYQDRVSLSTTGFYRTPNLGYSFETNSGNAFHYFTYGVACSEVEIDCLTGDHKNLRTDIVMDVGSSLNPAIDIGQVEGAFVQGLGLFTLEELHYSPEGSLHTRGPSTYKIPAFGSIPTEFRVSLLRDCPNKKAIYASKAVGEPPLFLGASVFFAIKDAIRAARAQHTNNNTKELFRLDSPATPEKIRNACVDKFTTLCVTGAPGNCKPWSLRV

Row | Structure (SMILES) | IC50 [nM]
1 | Clc1nc(NN=Cc2ccccc2)c2nc[nH]c2n1 [Compound 3b, 6-benzylidenehydrazino-2-chloro-9H-purine] | 2710
2 | COc1ccc(-c2nnc3c4nc[nH]c4[nH]c(=S)n23)cc1 [Compound 5d, 3-p-methoxyphenyl-7H-[1,2,4]triazolo[3,4-i]purine-5(6H)-thione] | 3020
3 | Clc1nc(NN=Cc2ccc3c(c2)OCO3)c2nc[nH]c2n1 [Compound 3g, 2-chloro-6-(3,4-methylenedioxybenzylidenehydrazino)-9H-purine] | 1150
4 | Clc1ccc(C=NNc2nc(Cl)nc3[nH]cnc23)cc1 [Compound 3d, 2-chloro-6-p-chlorobenzylidenehydrazino-9H-purine] | 927
5 | CN(C)c1ccc(C=NNc2nc(Cl)nc3[nH]cnc23)cc1 [Compound 3f, 2-chloro-6-p-N,N-dimethylaminobenzylidenehydrazino-9H-purine] | 2320
6 | Oc1ccc(C=NNc2nc(Cl)nc3[nH]cnc23)cc1 [Compound 3i, 2-chloro-6-p-hydroxybenzylidenehydrazino-9H-purine] | 764
7 | COc1ccc(C=NNc2nc(Cl)nc3[nH]cnc23)cc1 [Compound 3e, 2-chloro-6-p-methoxybenzylidenehydrazino-9H-purine] | 801
8 | Fc1ccc(C=NNc2nc(Cl)nc3[nH]cnc23)cc1 [Compound 3c, 2-chloro-6-p-fluorobenzylidenehydrazino-9H-purine] | 1960
9 | Cc1nnc2c3nc[nH]c3[nH]c(=S)n12 [Compound 5b, 3-methyl-7H-[1,2,4]triazolo[3,4-i]purine-5(6H)-thione] | 7910
10 | S=c1[nH]c2[nH]cnc2c2nnc(-c3ccccc3)n12 [Compound 5c, 3-phenyl-7H-[1,2,4]triazolo[3,4-i]purine-5(6H)-thione] | 2950

The next lines start with the values.

Row | IC50 [nM] | Structure (SMILES)
11 | 156 | O=c1[nH]c2[nH]cnc2c2nnc(-c3ccc(Cl)cc3)n12 [Compound 11e, 3-p-chlorophenyl-7H-[1,2,4]triazolo[3,4-i]purine-5(6H)-one]
12 | 667 | CN(N=Cc1ccc(F)cc1)c1nc(=S)[nH]c2[nH]cnc12 [Compound 19b, 6-[2-(4-fluorobenzylidene)-1-methylhydrazino]-9H-purine-2(3H)-thione]
13 | 336 | Fc1ccc(C=NNc2nc(=S)[nH]c3[nH]cnc23)cc1 [Compound 17a, 6-p-fluorobenzylidenehydrazino-9H-purine-2(3H)-thione]
14 | 969 | COc1ccc(C=NNc2nc(=S)[nH]c3[nH]cnc23)cc1 [Compound 17d, 6-p-methoxybenzylidenehydrazino-9H-purine-2(3H)-thione]
15 | 2570 | O=c1[nH]c2[nH]cnc2c2nnc(-c3ccccc3)n12 [Compound 11c, 3-phenyl-7H-[1,2,4]triazolo[3,4-i]purine-5(6H)-one]
16 | 235 | S=c1nc(NN=Cc2ccc3c(c2)OCO3)c2nc[nH]c2[nH]1 [Compound 17e, 6-(3,4-methylenedioxybenzylidenehydrazino)-9H-purine-2(3H)-thione]
17 | 865 | CN(C)c1ccc(C=NNc2nc(=S)[nH]c3[nH]cnc23)cc1 [Compound 17b, 6-p-N,N-dimethylaminobenzylidenehydrazino-9H-purine-2(3H)-thione]
18 | 681 | COc1ccc(C=NN(C)c2nc(=S)[nH]c3[nH]cnc23)cc1 [Compound 19a, 6-[2-(4-methoxybenzylidene)-1-methylhydrazino]-9H-purine-2(3H)-thione]
19 | 1180 | O=[N+]([O-])c1ccc(C=NNc2nc(=S)[nH]c3[nH]cnc23)cc1 [Compound 17c, 6-p-nitrobenzylidenehydrazino-9H-purine-2(3H)-thione]
